What is called IC50 is the concentration needed to halve the response being measured. A high value points to weaker potency in that assay.

This passage reports IC50 results from patent US8916557B2, “Substituted 4-Aryl-N-phenyl-1,3,5-triazin-2-amines” (Bayer Intellectual Property GmbH, priority 2011, dated 2014).

One experiment concerns the target T1, CDK9/CycT1 (Homo sapiens, UniProt P50750).
T1 construct: Recombinant full-length His-tagged human CDK9 and CycT1; His; purchased Invitrogen PV4131; host or cells: insect cells
Put plainly: CDK9/CycT1 kinase assay (TR-FRET). The format is biochemical. The note with it: Method 1, 10 μM ATP. The source says: 1. CDK9/CycT1 Kinase Assay:
CDK9/CycT1-inhibitory activity of compounds of the present invention was quantified employing the CDK9/CycT1 TR-FRET assay as described in the following paragraphs:
Recombinant full-length His-tagged human CDK9 and CycT1, expressed in insect cells and purified by Ni-NTA affinity chromatography, were purchased from Invitrogen (Cat. No PV4131). As substrate for the kinase reaction biotinylated peptide biotin-Ttds-[…] (C-terminus in amid form) was used which can be purchased e.g. form the company JERINI Peptide Technologies (Berlin, Germany). For the assay 50 nl of a 100fold concentrated solution of the test compound in DMSO was pipetted into a black low volume 384well microtiter plate (Greiner Bio-One, Frickenhausen, Germany), 2 μl of a solution of CDK9/CycT1 in aqueous assay buffer [50 mM Tris/HCl pH 8.0, 10 mM MgCl2, 1.0 mM dithiothreitol, 0.1 mM sodium ortho-vanadate, 0.01% (v/v) Nonidet-P40 (Sigma)] were added and the mixture was incubated for 15 min at 22° C. to allow pre-binding of the test compounds to the enzyme before the start of the kinase reaction. Then the kinase reaction was started by the addition of 3 μl of a solution of adenosine-tri-phosphate (ATP, 16.7 μM=>final conc. in the 5 μl assay volume is 10 μM) and substrate (1.67 μM=>final conc. in the 5 μl assay volume is 1 μM) in assay buffer and the resulting mixture was incubated for a reaction time of 25 min at 22° C. The concentration of CDK9/CycT1 was adjusted depending of the activity of the enzyme lot and was chosen appropriate to have the assay in the linear range, typical concentrations were in the range of 1 μg/ml. The reaction was stopped by the addition of 5 μl of a solution of TR-FRET detection reagents (0.2 μM streptavidine-XL665 [Cisbio Bioassays, Codolet, France] and 1 nM anti-RB(pSer807/pSer811)-antibody from BD Pharmingen [#558389] and 1.2 nM LANCE EU-W1024 labeled anti-mouse IgG antibody [Perkin-Elmer, product no. AD0077]) in an aqueous EDTA-solution (100 mM EDTA, 0.2% (w/v) bovine serum albumin in 100 mM HEPES/NaOH pH 7.0).
(§1) The resulting mixture was incubated 1 h at 22° C. to allow the formation of complex between the phosphorylated biotinylated peptide and the detection reagents. Subsequently the amount of phosphorylated substrate was evaluated by measurement of the resonance energy transfer from the Eu-chelate to the streptavidine-XL. Therefore, the fluorescence emissions at 620 nm and 665 nm after excitation at 350 nm was measured in a HTRF reader, e.g. a Rubystar (BMG Labtechnologies, Offenburg, Germany) or a Viewlux (Perkin-Elmer). The ratio of the emissions at 665 nm and at 622 nm was taken as the measure for the amount of phosphorylated substrate.
(In general: In TR-FRET formats the signal depends on donor and acceptor labels being close together.)

The next experiment addresses T2, CDK2/CycE (Homo sapiens, UniProt P24941).
T2 construct: GST; purchased ProQinase GmbH (Freiburg, Germany); host or cells: insect cells (Sf9)
Put plainly: CDK2/CycE kinase assay (TR-FRET). Format: biochemical. The note with it: Method 2, 10 μM ATP.
Source text: 2. CDK2/CycE Kinase Assay:
CDK2/CycE-inhibitory activity of compounds of the present invention was quantified employing the CDK2/CycE TR-FRET assay as described in the following paragraphs:
Recombinant fusion proteins of GST and human CDK2 and of GST and human CycE, expressed in insect cells (Sf9) and purified by Glutathion-Sepharose affinity chromatography, were purchased from ProQinase GmbH (Freiburg, Germany). As substrate for the kinase reaction biotinylated peptide biotin-Ttds-[…] (C-terminus in amid form) was used which can be purchased e.g. form the company JERINI Peptide Technologies (Berlin, Germany).
For the assay 50 nl of a 100fold concentrated solution of the test compound in DMSO was pipetted into a black low volume 384well microtiter plate (Greiner Bio-One, Frickenhausen, Germany), 2 μl of a solution of CDK2/CycE in aqueous assay buffer [50 mM Tris/HCl pH 8.0, 10 mM MgCl2, 1.0 mM dithiothreitol, 0.1 mM sodium ortho-vanadate, 0.01% (v/v) Nonidet-P40 (Sigma)] were added and the mixture was incubated for […] at 22° C. to allow pre-binding of the test compounds to the enzyme before the start of the kinase reaction. Then the kinase reaction was started by the addition of 3 μl of a solution of adenosine-tri-phosphate (ATP, 16.7 μM=>final conc. in the 5 it assay volume is 10 μM) and substrate (1.25 μM=>final conc. in the 5 it assay volume is 0.75 μM) in assay buffer and the resulting mixture was incubated for a reaction time of […] at 22° C. The concentration of CDK2/CycE was adjusted depending of the activity of the enzyme lot and was chosen appropriate to have the assay in the linear range, typical concentrations were in the range of 130 ng/ml. The reaction was stopped by the addition of 5 it of a solution of TR-FRET detection reagents (0.2 μM streptavidine-XL665 [Cisbio Bioassays, Codolet, France] and 1 nM anti-RB(pSer807/pSer811)-antibody from BD Pharmingen [#558389] and 1.2 nM LANCE EU-W1024 labeled anti-mouse IgG antibody [Perkin-Elmer, product no. AD0077]) in an aqueous EDTA-solution (100 mM EDTA, 0.2% (w/v) bovine serum albumin in 100 mM HEPES/NaOH pH 7.0).
as §1, with “TR-FRET” for “HTRF”

T1 sequence (P50750 whole entry): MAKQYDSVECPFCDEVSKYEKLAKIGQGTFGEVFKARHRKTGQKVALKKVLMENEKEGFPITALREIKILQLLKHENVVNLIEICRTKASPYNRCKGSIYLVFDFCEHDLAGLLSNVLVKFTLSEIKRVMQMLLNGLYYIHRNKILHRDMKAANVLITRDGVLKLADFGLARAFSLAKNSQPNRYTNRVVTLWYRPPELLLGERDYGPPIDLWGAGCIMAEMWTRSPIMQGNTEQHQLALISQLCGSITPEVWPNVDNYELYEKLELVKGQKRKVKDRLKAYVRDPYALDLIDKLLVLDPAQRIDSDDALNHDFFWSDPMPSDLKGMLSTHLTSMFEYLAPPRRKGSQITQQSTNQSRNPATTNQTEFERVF
T1 sequence (O60563 whole entry partner): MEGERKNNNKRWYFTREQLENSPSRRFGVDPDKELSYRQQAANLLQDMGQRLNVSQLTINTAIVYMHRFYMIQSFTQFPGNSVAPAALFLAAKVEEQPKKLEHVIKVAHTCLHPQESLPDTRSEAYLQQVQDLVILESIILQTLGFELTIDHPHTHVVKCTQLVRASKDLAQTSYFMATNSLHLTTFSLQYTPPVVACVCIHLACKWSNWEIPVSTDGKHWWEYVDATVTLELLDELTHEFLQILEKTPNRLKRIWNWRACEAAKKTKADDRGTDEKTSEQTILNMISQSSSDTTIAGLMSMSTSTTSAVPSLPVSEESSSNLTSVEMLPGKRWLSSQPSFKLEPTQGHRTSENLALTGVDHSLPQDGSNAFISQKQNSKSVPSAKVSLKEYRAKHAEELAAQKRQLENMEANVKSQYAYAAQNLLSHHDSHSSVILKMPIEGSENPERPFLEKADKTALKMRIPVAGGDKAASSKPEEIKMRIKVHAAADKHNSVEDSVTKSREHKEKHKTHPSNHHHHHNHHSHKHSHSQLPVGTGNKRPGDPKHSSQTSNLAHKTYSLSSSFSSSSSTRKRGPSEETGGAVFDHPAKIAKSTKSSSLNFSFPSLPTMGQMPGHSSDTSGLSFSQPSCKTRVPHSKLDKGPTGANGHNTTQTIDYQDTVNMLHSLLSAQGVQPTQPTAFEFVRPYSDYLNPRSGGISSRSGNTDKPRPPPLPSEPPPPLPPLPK

As to `CS(=O)(=O)Cc1cccc(Nc2ncnc(-c3ccccc3OC(F)(F)F)n2)c1` [Example 7, N-{3-[(Methylsulfonyl)methyl]phenyl}-4-[2-(trifluoromethoxy)phenyl]-1,3,5-triazin-2-amine], the results for the half-inhibitory concentration (IC50) on CDK9/CycT1 and on CDK2/CycE were 0.33 µM and 5.4 µM, respectively.
As for `CS(=O)(=O)Cc1cccc(Nc2ncnc(-c3ccc(F)cc3OC3CCC3)n2)c1` [Example 64, 4-[2-(Cyclobutyloxy)-4-fluorophenyl]-N-{3-[(methylsulfonyl)methyl]phenyl}-1,3,5-triazin-2-amine], the values for the 50% inhibitory concentration (IC50) at CDK9/CycT1 and on CDK2/CycE were 0.034 µM and 1.8 µM, respectively.
For `COc1ccc(F)cc1-c1ncnc(Nc2cccc(CS(C)(=O)=O)c2)n1` [Example 11, 4-(5-Fluoro-2-methoxyphenyl)-N-{3-[(methylsulfonyl)methyl]phenyl}-1,3,5-triazin-2-amine] the same measures were 0.033 µM and 1.3 µM.
For `CS(=O)(=O)Cc1cccc(Nc2ncnc(-c3ccc(F)cc3OC(F)F)n2)c1` [Example 15, 4-[2-(Difluoromethoxy)-4-fluorophenyl]-N-{3-[(methylsulfonyl)methyl]phenyl}-1,3,5-triazin-2-amine] the same measures were 0.13 µM and 3.9 µM.
Consider `CCOCCOc1cc(F)ccc1-c1ncnc(Nc2cccc(CS(C)(=O)=O)c2)n1` [Example 51, 4-[2-(2-Ethoxyethoxy)-4-fluorophenyl]-N-{3-[(methylsulfonyl)methyl]phenyl}-1,3,5-triazin-2-amine], for which the values for the IC50 on CDK9/CycT1 and at CDK2/CycE were 0.08 µM and 9.4 µM, respectively.
Regarding `COc1cc(F)ccc1-c1ncnc(Nc2cccc(CS(=O)(=O)C(C)(C)C)c2)n1` [Example 17, N-{3-[(tert-Butylsulfonyl)methyl]phenyl}-4-(4-fluoro-2-methoxyphenyl)-1,3,5-triazin-2-amine], the IC50 against CDK9/CycT1 stood at 0.047 µM; against CDK2/CycE it was 2 µM.
As for `COc1ncccc1-c1ncnc(Nc2cccc(CS(C)(=O)=O)c2)n1` [Example 20, 4-(2-Methoxypyridin-3-yl)-N-{3-[(methylsulfonyl)methyl]phenyl}-1,3,5-triazin-2-amine], the half-inhibitory concentration (IC50) against CDK9/CycT1 was found to be 0.11 µM; on CDK2/CycE, 8.2 µM.
`CS(=O)(=O)Cc1cccc(Nc2ncnc(-c3cccc4c3OC(F)(F)C(F)(F)O4)n2)c1` [Example 19, N-{3-[(Methylsulfonyl)methyl]phenyl}-4-(2,2,3,3-tetrafluoro-2,3-dihydro-1,4-benzodioxin-5-yl)-1,3,5-triazin-2-amine]: the results for the half-maximal inhibitory concentration (IC50) at CDK9/CycT1 and against CDK2/CycE were 0.035 µM and 0.64 µM, respectively.
Consider `CS(=O)(=O)Cc1cccc(Nc2ncnc(-c3cc(F)ccc3OCc3ccccc3F)n2)c1` [Example 30, 4-{5-Fluoro-2-[(2-fluorobenzyl)oxy]phenyl}-N-{3-[(methylsulfonyl)methyl]phenyl}-1,3,5-triazin-2-amine], for which the IC50 on CDK9/CycT1 is 0.032 µM; against CDK2/CycE, 6.6 µM.
Consider `CC(C)Oc1cc(F)ccc1-c1ncnc(Nc2cccc(CS(C)(=O)=O)c2)n1` [Example 5, 4-[4-Fluoro-2-(propan-2-yloxy)phenyl]-N-{3-[(methylsulfonyl)methyl]phenyl}-1,3,5-triazin-2-amine], for which the concentration for half-maximal inhibition (IC50) worked out at 0.025 µM against CDK9/CycT1 and 1.4 µM against CDK2/CycE.
The like results for `COc1cc(Cl)ccc1-c1ncnc(Nc2cccc(CS(C)(=O)=O)c2)n1` [Example 32, 4-(4-Chloro-2-methoxyphenyl)-N-{3-[(methylsulfonyl)methyl]phenyl}-1,3,5-triazin-2-amine] were, in that order, 0.025 µM and 2.3 µM.
The like results for `CS(=O)(=O)Cc1cccc(Nc2ncnc(-c3cc(F)ccc3OCC3CCOCC3)n2)c1` [Example 21, 4-[5-Fluoro-2-(tetrahydro-2H-pyran-4-ylmethoxy)phenyl]-N-{3-[(methylsulfonyl)methyl]phenyl}-1,3,5-triazin-2-amine] were, in that order, 0.11 µM and 8.8 µM.
On to `CS(=O)(=O)Cc1cccc(Nc2ncnc(-c3cccc4c3OC(F)(F)O4)n2)c1` [Example 6, 4-(2,2-Difluoro-1,3-benzodioxol-4-yl)-N-{3-[(methylsulfonyl)methyl]phenyl}-1,3,5-triazin-2-amine], for which the values for the half-inhibitory concentration (IC50) against CDK9/CycT1 and on CDK2/CycE were 0.033 µM and 1.3 µM, respectively.
For `COc1cc(F)ccc1-c1ncnc(Nc2cccc(CS(=O)(=O)c3ccccc3)c2)n1` [Example 35, 4-(4-Fluoro-2-methoxyphenyl)-N-{3-[(phenylsulfonyl)methyl]phenyl}-1,3,5-triazin-2-amine] the same measures were 0.03 µM and 2.2 µM.
For `CS(=O)(=O)Cc1cccc(Nc2ncnc(-c3ccc(F)cc3OCc3ccnc(F)c3)n2)c1` [Example 82, 4-{4-Fluoro-2-[(2-fluoropyridin-4-yl)methoxy]-phenyl}-N-{3-[(methylsulfonyl)-methyl]-phenyl}-1,3,5-triazin-2-amine] the same measures were 0.001 µM and 0.075 µM.
For `CS(=O)(=O)Cc1cccc(Nc2ncnc(-c3ccc(F)cc3OC3CCCC3)n2)c1` [Example 65, 4-[2-(Cyclopentyloxy)-4-fluorophenyl]-N-{3-[(methylsulfonyl)methyl]phenyl}-1,3,5-triazin-2-amine] the same measures were 0.036 µM and 2.3 µM.
Regarding `COc1c(-c2ncnc(Nc3cccc(CS(C)(=O)=O)c3)n2)ccc(F)c1F` [Example 2, 4-(3,4-Difluoro-2-methoxyphenyl)-N-{3-[(methylsulfonyl)methyl]phenyl}-1,3,5-triazin-2-amine], the half-maximal inhibitory concentration (IC50) against CDK9/CycT1 came out at 0.16 µM; at CDK2/CycE it was 8.6 µM.
For `CS(=O)(=O)Cc1cccc(Nc2ncnc(-c3ccc(F)cc3OCC3(F)CCCCC3)n2)c1` [Example 66, 4-{4-Fluoro-2-[(1-fluorocyclohexyl)-methoxy]phenyl}-N-{3-[(methylsulfonyl)-methyl]phenyl}-1,3,5-triazin-2-amine] the same measures were 0.022 µM and 6.8 µM.
